Experimental data: patent US20240108634A1, “COMPOSITIONS AND METHODS FOR INHIBITING YAP” (The United States Government as represented by the …, priority 2021, published 2024)

Target: T1, full-length human YAP1 (Homo sapiens, UniProt P46937)
T1 construct: purified recombinant HA-tagged full-length human YAP1; made in house
Test: Inhibitor-coupled bead binding of recombinant HA-tagged YAP
Conditions: immunoblot of bound HA-YAP
Experimental: FIGS. 1A-G show the identification of a YAP1-TEAD1 binding interface inhibitor. […] The Gal4 DBD was fused to residues 50-171 of human YAP1 and the Gal4 AD was fused to residues 194-411 of human TEAD1. These fusions were expressed in yeast containing reporters harboring Gal4 upstream activating sequences (UAS). […] Yeast expressing either p53-DBD and SV40 large T antigen-AD fusions or YAP1-DBD and TEAD1-AD fusions were plated on selective media. Compounds were pinned onto the plate surfaces by robotic transfer and subsequently examined for halo formation (indicated by red circles). […] Pull-down products were analyzed by SDS-PAGE and silver staining. […] Raw binding sensorgrams obtained at each concentration were fitted to a 1:1 binding model and Kon, Koff and KD were calculated by simultaneous non-linear regression analyses.
Protein and mRNA analyses, immunoprecipitation, in vitro bead-coupled inhibitor binding assays and HPLC analyses. […] Antigen-antibody complexes were detected using appropriate horseradish peroxidase-conjugated secondary antibodies (GE Healthcare) and enhanced chemiluminescence (Amersham ECL Prime). […] For quantitative RT-PCR, extraction of RNA was performed using Trizol® (Life Technologies). Total RNA was then quantified and integrity assessed using an Agilent 2100 Bioanalyzer (Agilent Technology). […]

T1 sequence (P46937 whole entry): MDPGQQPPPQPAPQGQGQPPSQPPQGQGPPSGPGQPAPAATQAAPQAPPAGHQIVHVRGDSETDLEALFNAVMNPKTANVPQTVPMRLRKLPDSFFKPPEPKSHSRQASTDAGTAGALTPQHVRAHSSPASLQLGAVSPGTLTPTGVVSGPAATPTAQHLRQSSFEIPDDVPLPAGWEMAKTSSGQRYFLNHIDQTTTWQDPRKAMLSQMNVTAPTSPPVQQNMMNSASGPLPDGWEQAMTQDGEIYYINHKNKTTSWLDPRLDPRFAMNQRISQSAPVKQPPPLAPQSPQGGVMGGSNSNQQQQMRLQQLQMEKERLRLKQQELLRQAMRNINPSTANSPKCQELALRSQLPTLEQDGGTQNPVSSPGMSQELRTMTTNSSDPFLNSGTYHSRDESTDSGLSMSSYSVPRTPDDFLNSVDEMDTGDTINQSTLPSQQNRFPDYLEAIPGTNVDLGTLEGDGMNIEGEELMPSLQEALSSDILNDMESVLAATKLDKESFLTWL

COc1ccc(-c2cc(-c3ccccc3)nc3c2CC(=O)Nc2ccccc2-3)cc1OC [NSC682769]
Binding of YAP to compound-coupled beads: associated strongly
